Measurements: patent US6806265B2, “Non-nucleoside reverse transcriptase inhibitors” (priority 2002, dated 2004)
Like-named read-outs stand apart in the source and are kept apart here.

Experiments:
[1] = system: HIV-1 double mutant K103N/Y181C; experiment: microbe, parasite or virus in culture; format: cell-based
HIV-1 wild type = experiment: microbe, parasite or virus in culture; format: cell-based
[2] = target: T1, HIV-1 RT double mutant K103N/Y181C (Human immunodeficiency virus type 1 group M subtype B, UniProt P03366, K702N/Y780C); experiment: biochemical
T1 construct: HIV-1 wild type reverse transcriptase as well as the clinically significant double mutant K103N/Y181C
Experimental: (§1) Utilizing the Reverse Transcriptase (RT) Assay described below, compounds were tested for their ability to inhibit the RNA-dependent DNA polymerase activity of HIV-1 RT. Certain specific compounds described in the Examples and in Tables 1-4, were so tested. The results of this testing appear in Table 5 as ranges of IC50 (nM) and EC50 (nM).
(§2) Reverse Transcriptase (RT) Assays

[3] = target: T2, HIV-1 wild type reverse transcriptase (Human immunodeficiency virus type 1 group M subtype B, UniProt P03366); experiment: biochemical
T2 construct: HIV-1 wild type reverse transcriptase
Experimental: as §1, §2

[4] = Human immunodeficiency virus 1, read-out: EC50 K103N/Y181C (nM)
[5] = Human immunodeficiency virus 1, wild type, read-out: EC50 WT RT
[6] = double mutant K103N/Y181C, read-out: EC50 K103N/Y181C
[7] = wild type RT, read-out: IC50 WT RT
[8] = RT double mutant K103N/Y181C, read-out: IC50 K103N/Y181C
[9] = wild type, read-out: EC50 WT RT
[10] = Human immunodeficiency virus 1, read-out: EC50 WT RT (nM)

SMILES	EC50 [1, 4] [nM]	IC50 [2] [nM]	EC50 [1, 6] [nM]	IC50 [3, 7] [nM]	IC50 [2, 8] [nM]	also measured
CCN1c2ncc(CCOc3ccc(Nc4nc(C(=O)O)cs4)cc3C)cc2C(=O)N(C)c2cccnc21 [Entry 3026]	10 to 50	50 to 100	–	–	–	EC50 (HIV-1 wild type; [5]): < 10 nM
CCN1c2ncc(CCOc3ccc(-c4cc(CC(=O)O)ccc4OC)cc3C)cc2C(=O)N(C)c2cccnc21 [Entry 1037]	–	–	10 to 50	< 50	50 to 100	–
CCN1c2ncc(CCOc3ccc(C(=O)Nc4ccc[n+]([O-])c4)cc3C)cc2C(=O)Nc2c(C)ccnc21 [Entry 3020]	–	–	< 10	< 50	< 50	EC50 (HIV-1 wild type; [9]): < 10 nM
CCN1c2ncc(CCOc3ccc(C(=O)NS(=O)(=O)c4ccccc4)cc3C)cc2C(=O)N(C)c2cccnc21 [Entry 3009]	> 50	> 100	–	< 50	–	EC50 (HIV-1 wild type; [10]): 10 to 50 nM
CCN1c2ncc(CCOc3ccc(C(=O)Nc4ccccc4C(=O)O)cc3C)cc2C(=O)N(C)c2cccnc21 [Entry 3011]	> 50	> 100	–	< 50	–	EC50 (HIV-1 wild type; [10]): 10 to 50 nM
CCN1c2ncc(CCOc3ccc(C(=O)N(C)c4ccc(C(=O)O)cc4)cc3C)cc2C(=O)N(C)c2cccnc21 [Entry 3016]	10 to 50	50 to 100	–	< 50	–	–
CCN1c2ncc(CCOc3ccc(-c4ccc(CC(=O)O)cc4)cc3)cc2C(=O)N(C)c2cccnc21 [Entry 1007]	–	–	> 50	< 50	50 to 100	EC50 (HIV-1 wild type; [9]): 10 to 50 nM
CCN1c2ncc(CCOc3ccc(-c4ccc(C(=O)O)cc4)c(C)c3)cc2C(=O)N(C)c2cccnc21 [Entry 1005]	–	–	> 50	< 50	> 100	EC50 (HIV-1 wild type; [9]): 10 to 50 nM
CCN1c2ncc(CCOc3ccc(C(=O)Nc4cccnc4O)cc3C)cc2C(=O)N(C)c2cccnc21 [Entry 3021]	< 10	< 50	–	< 50	–	EC50 (HIV-1 wild type; [5]): < 10 nM
CCN1c2ncc(CCOc3ccc(-c4cn(C)cn4)cc3C)cc2C(=O)N(C)c2cccnc21 [Entry 1095, 11-Ethyl-5,11-dihydro-5-methyl-8-{2-[2-methyl-4-(1-methyl-1H-imidazol-4-yl)phenoxy]ethyl}-6H-dipyrido[3,2-b:2′,3′-e][1,4]diazepin-6-one]	< 10	< 50	–	< 50	–	EC50 (HIV-1 wild type; [5]): < 10 nM
CCN1c2ncc(CCOc3ccc(-c4ccc(Cl)c(CC(=O)O)c4)cc3C)cc2C(=O)N(C)c2cccnc21 [Entry 1038]	–	–	10 to 50	< 50	< 50	–
CCN1c2ncc(CCOc3ccc(-c4ccc(N)c(C(=O)O)c4)cc3C)cc2C(=O)N(C)c2cccnc21 [Entry 1034, 4-Amino-4′-[2-(11-ethyl-6,11-dihydro-5-methyl-6-oxo-5H-dipyrido[3,2-b:2′,3′-e][1,4]diazepin-8-yl)ethoxy]-3′-methyl-[1,1′-biphenyl]-3-carboxylic acid]	< 10	< 50	–	< 50	–	EC50 (HIV-1 wild type; [10]): < 10 nM
CCN1c2ncc(CCOc3ccc(-c4ccc(C(=O)O)cc4)c(Cl)c3)cc2C(=O)N(C)c2cccnc21 [Entry 1006]	–	–	> 50	< 50	50 to 100	EC50 (HIV-1 wild type; [9]): 10 to 50 nM
CCN1c2ncc(CCOc3ccc(C(=O)Nc4ccc(CC(=O)O)cc4)cc3C)cc2C(=O)Nc2c(C)ccnc21 [Entry 3018]	> 50	< 50	–	< 50	–	EC50 (HIV-1 wild type; [10]): 10 to 50 nM
CCN1c2ncc(CCOc3ccc(S(=O)(=O)NCC(=O)O)cc3C)cc2C(=O)N(C)c2cccnc21 [Entry 4020]	> 50	< 50	–	< 50	–	EC50 (HIV-1 wild type; [5]): > 50 nM
CCN1c2ncc(CCOc3ccc(-c4ccc(Cl)c(C(=O)O)c4)cc3C)cc2C(=O)N(C)c2cccnc21 [Entry 1032]	–	–	10 to 50	< 50	50 to 100	–
CCN1c2ncc(CCOc3ccc(-c4ccc(C(=O)O)cc4)cc3)cc2C(=O)N(C)c2cccnc21 [Entry 1001]	–	–	> 50	< 50	50 to 100	EC50 (HIV-1 wild type; [9]): < 10 nM
CCN1c2ncc(CCOc3ccc(-c4cc(C(=O)O)c(C)o4)cc3)cc2C(=O)N(C)c2cccnc21 [Entry 1047, 5-{4-[2-(11-Ethyl-6,11-dihydro-5-methyl-6-oxo-5H-dipyrido[3,2-b:2′,3′-e][1,4]diazepin-8-yl)ethoxy]phenyl}-2-methyl-3-furanecarboxylic acid]	> 50	> 100	–	< 50	–	EC50 (HIV-1 wild type; [5]): 10 to 50 nM
CCN1c2ncc(CCOc3ccc(C(=O)NC(C)(C)C(=O)O)cc3C)cc2C(=O)N(C)c2cccnc21 [Entry 4012]	> 50	50 to 100	–	< 50	–	EC50 (HIV-1 wild type; [5]): 10 to 50 nM
CCN1c2ncc(CCOc3ccc(-c4ccc(C(=O)O)cc4)cc3)cc2C(=O)N(C)c2ccc(Cl)nc21 [Entry 1002]	–	–	–	< 50	< 50	EC50 (HIV-1 wild type; [9]): < 10 nM
CCN1c2ncc(CCOc3ccc(C(=O)NNCC(=O)O)cc3C)cc2C(=O)N(C)c2cccnc21 [Entry 4015]	–	> 100	–	< 50	–	EC50 (HIV-1 wild type; [5]): 10 to 50 nM

SMILES	EC50 [1, 4] [nM]	IC50 [2] [nM]	EC50 [1, 6] [nM]	IC50 [3, 7] [nM]	IC50 [2, 8] [nM]	also measured
CCN1c2ncc(CCOc3ccc(-c4ccc(CC(=O)O)c(C)c4)cc3C)cc2C(=O)N(C)c2cccnc21 [Entry 1021]	–	–	10 to 50	< 50	< 50	–
CCN1c2ncc(CCOc3ccc(NC(=O)C4CC4C(=O)O)cc3C)cc2C(=O)N(C)c2cccnc21 (stereo not drawn) [Entry 4009]	> 50	> 100	–	< 50	–	EC50 (HIV-1 wild type; [5]): < 10 nM
CCN1c2ncc(CCOc3ccc(-c4cc(CC(=O)O)ccc4C)cc3C)cc2C(=O)N(C)c2cccnc21 [Entry 1036]	–	–	10 to 50	< 50	50 to 100	–
CCN1c2ncc(CCOc3ccc(-c4cc(C(=O)O)ccc4C)cc3C)cc2C(=O)N(C)c2cccnc21 [Entry 1028]	–	–	10 to 50	< 50	> 100	–
CCN1c2ncc(CCOc3ccc(-c4ccc(O)c(C(=O)O)c4)cc3C)cc2C(=O)N(C)c2cccnc21 [Entry 1033]	–	–	> 50	< 50	50 to 100	–
CCN1c2ncc(CCOc3ccc(-c4ccc(CC(=O)O)cc4)cc3C)cc2C(=O)Nc2c(C)ccnc21 [Entry 1009]	–	–	–	< 50	< 50	EC50 (HIV-1 wild type; [9]): 10 to 50 nM
CCN1c2ncccc2NC(=O)c2cc(CCOc3ccc(-c4ccc[n+]([O-])c4)cc3C)cnc21 [Entry 1100]	–	–	10 to 50	< 50	–	EC50 (HIV-1 wild type; [9]): < 10 nM
CCN1c2ncc(CCOc3ccc(S(=O)(=O)c4ccc(C(=O)O)cc4)cc3C)cc2C(=O)N(C)c2cccnc21 [Entry 3028]	> 50	< 50	–	< 50	–	–
CCN1c2ncc(CCOc3ccc(-c4ncc[nH]4)cc3C)cc2C(=O)N(C)c2cccnc21 [Entry 1096, 11-Ethyl-5,11-dihydro-8-{2-[4-(1H-imidazol-2-yl)-2-methylphenoxy]ethyl}-5-methyl-6H-dipyrido[3,2-b:2′,3′-e][1,4]diazepin-6-one]	< 10	< 50	–	< 50	–	–
CCN1c2ncc(CCOc3ccc(-c4ccc(CC(=O)O)cc4F)cc3C)cc2C(=O)N(C)c2cccnc21 [Entry 1024]	–	–	10 to 50	< 50	< 50	–
CCN1c2ncc(CCOc3ccc(C(=O)Nc4ccc(C(=O)O)cn4)cc3C)cc2C(=O)N(C)c2cccnc21 [Entry 3014]	10 to 50	< 50	–	–	–	IC50 [3]: < 50 nM
CCN1c2ncc(CCOc3ccc(-c4cccnc4)cc3C)cc2C(=O)N(C)c2cccnc21 [Entry 1067]	–	–	< 10	–	< 50	IC50 ([3]; read-out: IC50 WT RT): < 50 nM
CCN1c2ncc(CCOc3ccc(NC(=O)NCC(=O)O)cc3C)cc2C(=O)N(C)c2cccnc21 [Entry 4004]	–	> 100	–	< 50	–	EC50 (HIV-1 wild type; [5]): 10 to 50 nM
CCN1c2ncc(CCOc3ccc(-c4cc[n+](C)cc4)cc3C)cc2C(=O)N(C)c2cccnc21 [Entry 1089]	–	–	< 10	–	< 50	–
CCN1c2ncc(CCOc3ccc(C(=O)N4CCC(C(=O)O)CC4)cc3C)cc2C(=O)N(C)c2cccnc21 [Entry 3008]	–	50 to 100	–	< 50	–	EC50 (HIV-1 wild type; [5]): 10 to 50 nM
CCN1c2ncc(CCOc3ccc(-c4ccc(C)nc4)cc3C)cc2C(=O)N(C)c2cccnc21 [Entry 1072]	–	–	< 10	–	< 50	–
CCN1c2ncc(CCOc3ccc(S(=O)(=O)c4ccncc4)cc3C)cc2C(=O)N(C)c2cccnc21 [Entry 3037]	< 10	< 50	–	–	–	–
CCN1c2ncc(CCOc3ccc(NC(=O)/C=C/C(=O)O)cc3C)cc2C(=O)N(C)c2cccnc21 [Entry 4010]	–	50 to 100	–	< 50	–	EC50 (HIV-1 wild type; [5]): > 50 nM
CCN1c2ncc(CCOc3ccc(-c4ccc(C(C)C(=O)O)cc4)cc3C)cc2C(=O)N(C)c2cccnc21 (stereo not drawn) [Entry 1010]	–	–	10 to 50	< 50	< 50	–
CCN1c2ncc(CCOc3ccc(-c4nccn4C)cc3C)cc2C(=O)N(C)c2cccnc21 [Entry 1097, 11-Ethyl-5,11-dihydro-5-methyl-8-{2-[2-methyl-4-(1-methyl-1H-imidazol-2-yl)phenoxy]ethyl}-6H-dipyrido[3,2-b:2′,3′-e][1,4]diazepin-6-one]	10 to 50	50 to 100	–	< 50	–	–
CCN1c2ncc(CCOc3ccc(-c4ccc(CC(=O)O)cc4OC)cc3C)cc2C(=O)N(C)c2cccnc21 [Entry 1026]	–	–	10 to 50	< 50	< 50	–
